ChEMBL document CHEMBL5724696, “Autophagy assay results for EUbOPEN Chemogenomics Library” (2024)

What was measured:
Assay type in all cases: functional, Homo sapiens
U2OS [1] = experiment: (§1) Here: values are normalized to the negative (DMSO; defined as 0% autophagy induction) and positive (250nM Torin1; mTOR inhibitor; defined as maximal inducer of autophagy = 100%) control compounds and represented as % of autophagy induction. […] The impact of autophagy induction on cells is complex and depends on the affected target. As such, the magnitude of a phenotype may not be equally mirrored in the %-value of autophagy induction and vice versa. The dynamics of the induction may indicate the mode of activation: e.g. activation via phosphorylation or a signaling cascade may occur fast, while activation via transcription factors may take considerably longer. […] Of note, treatment concentrations may be sub-optimal for specific compounds, leading to false negative annotations.; conditions: Culturing Media DMEM, 1 % Penicillin/Streptomycin, 10% Fetal bovin serum Add-On: No, Screening Media Control DMEM, Screening Media Samples DMEM
U2OS [2] = experiment: as §1; conditions: Culturing Media DMEM, 1 % Penicillin/Streptomycin, 10% Fetal bovin serum Add-On: No, Screening Media Control DMEM, Screening Media Samples DMEM; remark: listed apart in the source
TERT-RPE1 = experiment: as §1; conditions: Culturing Media DMEM/F12 (1:1), 1 % Penicillin/Streptomycin, 10% Fetal bovin serum Add-On: No, Screening Media Control DMEM/F12 (1:1), Screening Media Samples DMEM/F12 (1:1)
[3] = Compound Concentration 0.5 uM, Timepoint 12 hours
[4] = Compound Concentration 0.5 uM, Timepoint 24 hours
[5] = Compound Concentration 0.5 uM, Timepoint 36 hours
[6] = Compound Concentration 0.5 uM, Timepoint 60 hours
[7] = Compound Concentration 2 uM, Timepoint 12 hours
[8] = Compound Concentration 2 uM, Timepoint 24 hours
[9] = Compound Concentration 2 uM, Timepoint 36 hours
[10] = Compound Concentration 2 uM, Timepoint 60 hours
[11] = Compound Concentration 10 uM, Timepoint 12 hours
[12] = Compound Concentration 10 uM, Timepoint 24 hours
[13] = Compound Concentration 10 uM, Timepoint 36 hours
[14] = Compound Concentration 10 uM, Timepoint 60 hours

Work on `COc1ccc(S(=O)(=O)c2cc(OC)ccc2S(=O)(=O)c2ccc([C@H](C)NS(C)(=O)=O)cc2)cc1` yielded an autophagy induction (U2OS [1]; [3]) of 5.054%, an autophagy induction (U2OS [1]; [4]) of -4.288% and an autophagy induction (U2OS [1]; [5]) of -4.858%. The autophagy induction (U2OS [1]; [6]) was -2.8349%, the autophagy induction (U2OS [1]; [7]) was 5.036% and the autophagy induction (U2OS [1]; [8]) was -1.126%. The autophagy induction (U2OS [1]; [9]) was 2.146%, the autophagy induction (U2OS [1]; [10]) was -5.198% and the autophagy induction (U2OS [1]; [11]) was 5.742%. It also gave an autophagy induction (U2OS [1]; [12]) of 6.2878%, an autophagy induction (U2OS [1]; [13]) of 4.231% and an autophagy induction (U2OS [1]; [14]) of -3.951%. The autophagy induction (U2OS [2]; [3]) was 5.1145%, the autophagy induction (U2OS [2]; [4]) was 1.212% and the autophagy induction (U2OS [2]; [5]) was 0.9926%. The autophagy induction (U2OS [2]; [6]) was 0.6082%, the autophagy induction (U2OS [2]; [7]) was 2.687% and the autophagy induction (U2OS [2]; [8]) was 1.009%. It also gave an autophagy induction (U2OS [2]; [9]) of 1.125%, an autophagy induction (U2OS [2]; [10]) of 0.5012% and an autophagy induction (U2OS [2]; [11]) of -3.021%. The autophagy induction (U2OS [2]; [12]) was -0.6189%, the autophagy induction (U2OS [2]; [13]) was -0.5987% and the autophagy induction (U2OS [2]; [14]) was -0.1479%. The autophagy induction (TERT-RPE1; [3]) was -6.482%, the autophagy induction (TERT-RPE1; [4]) was -9.039% and the autophagy induction (TERT-RPE1; [5]) was -9.847%. The autophagy induction (TERT-RPE1; [6]) was -11.3186%, the autophagy induction (TERT-RPE1; [7]) was -6.676% and the autophagy induction (TERT-RPE1; [8]) was -10.1921%. It also gave an autophagy induction (TERT-RPE1; [9]) of -12.367%, an autophagy induction (TERT-RPE1; [10]) of -10.4808% and an autophagy induction (TERT-RPE1; [11]) of -5.338%. It also gave an autophagy induction (TERT-RPE1; [12]) of -8.134%, an autophagy induction (TERT-RPE1; [13]) of -7.872% and an autophagy induction (TERT-RPE1; [14]) of -5.175%.
Molecule `O=C1N/C(=N/c2ccccc2F)S/C1=C\c1ccc(C(=O)O)cc1` has an autophagy induction (U2OS [1]; [3]) of -6.588%, an autophagy induction (U2OS [1]; [4]) of -6.026% and an autophagy induction (U2OS [1]; [5]) of -1.651%. It also gave an autophagy induction (U2OS [1]; [6]) of -8.214%, an autophagy induction (U2OS [1]; [7]) of 1.845% and an autophagy induction (U2OS [1]; [8]) of 3.048%. It also gave an autophagy induction (U2OS [1]; [9]) of 0.4254%, an autophagy induction (U2OS [1]; [10]) of -3.587% and an autophagy induction (U2OS [1]; [11]) of 7.038%. The autophagy induction (U2OS [1]; [12]) was 3.001%, the autophagy induction (U2OS [1]; [13]) was 3.146% and the autophagy induction (U2OS [1]; [14]) was -8.731%. For the same molecule, the autophagy induction (U2OS [2]; [3]) was 1.731%, the autophagy induction (U2OS [2]; [4]) was 0.03156% and the autophagy induction (U2OS [2]; [5]) was -1.478%. For the same molecule, the autophagy induction (U2OS [2]; [6]) was 0.04429%, the autophagy induction (U2OS [2]; [7]) was 4.489% and the autophagy induction (U2OS [2]; [8]) was 0.7124%. For the same molecule, the autophagy induction (U2OS [2]; [9]) was -0.5769%, the autophagy induction (U2OS [2]; [10]) was 0.3402% and the autophagy induction (U2OS [2]; [11]) was -30.0859%. The autophagy induction (U2OS [2]; [12]) was -13.2121%, the autophagy induction (U2OS [2]; [13]) was -8.741% and the autophagy induction (U2OS [2]; [14]) was -4.602%. It also gave an autophagy induction (TERT-RPE1; [3]) of -10.0262%, an autophagy induction (TERT-RPE1; [4]) of -9.4115% and an autophagy induction (TERT-RPE1; [5]) of -12.0012%. The autophagy induction (TERT-RPE1; [6]) was -17.4269%, the autophagy induction (TERT-RPE1; [7]) was -2.621% and the autophagy induction (TERT-RPE1; [8]) was -7.325%. For the same molecule, the autophagy induction (TERT-RPE1; [9]) was -9.455%, the autophagy induction (TERT-RPE1; [10]) was -13.9846% and the autophagy induction (TERT-RPE1; [11]) was -9.926%. The autophagy induction (TERT-RPE1; [12]) was -10.0998%, the autophagy induction (TERT-RPE1; [13]) was -12.1834% and the autophagy induction (TERT-RPE1; [14]) was -11.0664%.
`O=C(O)C1CN(Cc2ccc(OCc3ccc(Cl)c(Cl)c3)cc2)C1` was tested, and the autophagy induction (U2OS [1]; [3]) was -6.393%, the autophagy induction (U2OS [1]; [4]) was -7.561% and the autophagy induction (U2OS [1]; [5]) was -8.567%. For the same molecule, the autophagy induction (U2OS [1]; [6]) was -6.096%, the autophagy induction (U2OS [1]; [7]) was 2.736% and the autophagy induction (U2OS [1]; [8]) was -0.6379%. It also gave an autophagy induction (U2OS [1]; [9]) of 3.003%, an autophagy induction (U2OS [1]; [10]) of 6.192% and an autophagy induction (U2OS [1]; [11]) of 4.494%. For the same molecule, the autophagy induction (U2OS [1]; [12]) was -1.815%, the autophagy induction (U2OS [1]; [13]) was -1.999% and the autophagy induction (U2OS [1]; [14]) was -2.676%. It also gave an autophagy induction (U2OS [2]; [3]) of -1.025%, an autophagy induction (U2OS [2]; [4]) of -0.5625% and an autophagy induction (U2OS [2]; [5]) of -1.224%. For the same molecule, the autophagy induction (U2OS [2]; [6]) was -0.01663%, the autophagy induction (U2OS [2]; [7]) was 2.871% and the autophagy induction (U2OS [2]; [8]) was 0.8864%. The autophagy induction (U2OS [2]; [9]) was 0.6277%, the autophagy induction (U2OS [2]; [10]) was 0.8248% and the autophagy induction (U2OS [2]; [11]) was 1.474%. The autophagy induction (U2OS [2]; [12]) was 3.015%, the autophagy induction (U2OS [2]; [13]) was 1.861% and the autophagy induction (U2OS [2]; [14]) was 1.49%. For the same molecule, the autophagy induction (TERT-RPE1; [3]) was -8.997%, the autophagy induction (TERT-RPE1; [4]) was -11.1742% and the autophagy induction (TERT-RPE1; [5]) was -13.4476%. For the same molecule, the autophagy induction (TERT-RPE1; [6]) was -16.3767%, the autophagy induction (TERT-RPE1; [7]) was -4.026% and the autophagy induction (TERT-RPE1; [8]) was -8.149%. For the same molecule, the autophagy induction (TERT-RPE1; [9]) was -12.0341%, the autophagy induction (TERT-RPE1; [10]) was -15.552% and the autophagy induction (TERT-RPE1; [11]) was -3.6803%. The autophagy induction (TERT-RPE1; [12]) was -2.7744%, the autophagy induction (TERT-RPE1; [13]) was -2.708% and the autophagy induction (TERT-RPE1; [14]) was -2.7926%.
`O=C(Cc1ccccc1)Nc1nc2ccc(Cl)cc2c2nc(-c3ccco3)nn12` showed an autophagy induction (U2OS [1]; [3]) of 4.486%, an autophagy induction (U2OS [1]; [4]) of 1.051% and an autophagy induction (U2OS [1]; [5]) of 3.966%. For the same molecule, the autophagy induction (U2OS [1]; [6]) was 7.125%, the autophagy induction (U2OS [1]; [7]) was -5.124% and the autophagy induction (U2OS [1]; [8]) was -1.574%. It also gave an autophagy induction (U2OS [1]; [9]) of -4.263%, an autophagy induction (U2OS [1]; [10]) of 4.935% and an autophagy induction (U2OS [1]; [11]) of -2.171%. It also gave an autophagy induction (U2OS [1]; [12]) of -3.2492%, an autophagy induction (U2OS [1]; [13]) of 0.6441% and an autophagy induction (U2OS [1]; [14]) of 10.7185%. It also gave an autophagy induction (U2OS [2]; [3]) of -1.429%, an autophagy induction (U2OS [2]; [4]) of -4.076% and an autophagy induction (U2OS [2]; [5]) of -2.306%. The autophagy induction (U2OS [2]; [6]) was 0.1335%, the autophagy induction (U2OS [2]; [7]) was -7.203% and the autophagy induction (U2OS [2]; [8]) was -1.219%. It also gave an autophagy induction (U2OS [2]; [9]) of -0.343%, an autophagy induction (U2OS [2]; [10]) of -0.2104% and an autophagy induction (U2OS [2]; [11]) of -51.1859%. It also gave an autophagy induction (U2OS [2]; [12]) of -16.9004%, an autophagy induction (U2OS [2]; [13]) of -8.178% and an autophagy induction (U2OS [2]; [14]) of -3.011%. It also gave an autophagy induction (TERT-RPE1; [3]) of -7.39%, an autophagy induction (TERT-RPE1; [4]) of -10.3716% and an autophagy induction (TERT-RPE1; [5]) of -15.7815%. The autophagy induction (TERT-RPE1; [6]) was -15.2628%, the autophagy induction (TERT-RPE1; [7]) was -6.9816% and the autophagy induction (TERT-RPE1; [8]) was -7.632%. The autophagy induction (TERT-RPE1; [9]) was -7.871%, the autophagy induction (TERT-RPE1; [10]) was -12.6626% and the autophagy induction (TERT-RPE1; [11]) was -9.4005%. The autophagy induction (TERT-RPE1; [12]) was 10.615%, the autophagy induction (TERT-RPE1; [13]) was 24.2695% and the autophagy induction (TERT-RPE1; [14]) was 38.8225%.
